# Key:
# IRAK4 = IRAK4 (Homo sapiens (Human), UniProt Q9NWZ3); assay: IRAK4 Inhibition Assay; assay type: biochemical; conditions: ATP 500 μM; IRAK4 0.6 nM; 60 min room temperature
# In short: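 Phosphorylated and unphosphorylated fluorescent substrate were resolved by microfluidic electrophoresis after termination with 35 mM EDTA. The room-temperature kinase reaction lasted 60 min after IRAK4, substrates and test compound were combined; vehicle-only defined 0% and no-enzyme 100% inhibition.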
# JAK3 kinase = JAK3 kinase (Homo sapiens (Human), UniProt P52333); assay: JAK3 Homogeneous Time Resolved Fluorescence (HTRF) Assay; assay type: binding; conditions: for IC50: competition binding with fluorescein-labeled ATP competitive probe; for Ratio of JAK3 IC50 to IRAK4 IC50: selectivity for IRAK4 over JAK3
# JAK3 kinase, sequence (P52333 whole entry): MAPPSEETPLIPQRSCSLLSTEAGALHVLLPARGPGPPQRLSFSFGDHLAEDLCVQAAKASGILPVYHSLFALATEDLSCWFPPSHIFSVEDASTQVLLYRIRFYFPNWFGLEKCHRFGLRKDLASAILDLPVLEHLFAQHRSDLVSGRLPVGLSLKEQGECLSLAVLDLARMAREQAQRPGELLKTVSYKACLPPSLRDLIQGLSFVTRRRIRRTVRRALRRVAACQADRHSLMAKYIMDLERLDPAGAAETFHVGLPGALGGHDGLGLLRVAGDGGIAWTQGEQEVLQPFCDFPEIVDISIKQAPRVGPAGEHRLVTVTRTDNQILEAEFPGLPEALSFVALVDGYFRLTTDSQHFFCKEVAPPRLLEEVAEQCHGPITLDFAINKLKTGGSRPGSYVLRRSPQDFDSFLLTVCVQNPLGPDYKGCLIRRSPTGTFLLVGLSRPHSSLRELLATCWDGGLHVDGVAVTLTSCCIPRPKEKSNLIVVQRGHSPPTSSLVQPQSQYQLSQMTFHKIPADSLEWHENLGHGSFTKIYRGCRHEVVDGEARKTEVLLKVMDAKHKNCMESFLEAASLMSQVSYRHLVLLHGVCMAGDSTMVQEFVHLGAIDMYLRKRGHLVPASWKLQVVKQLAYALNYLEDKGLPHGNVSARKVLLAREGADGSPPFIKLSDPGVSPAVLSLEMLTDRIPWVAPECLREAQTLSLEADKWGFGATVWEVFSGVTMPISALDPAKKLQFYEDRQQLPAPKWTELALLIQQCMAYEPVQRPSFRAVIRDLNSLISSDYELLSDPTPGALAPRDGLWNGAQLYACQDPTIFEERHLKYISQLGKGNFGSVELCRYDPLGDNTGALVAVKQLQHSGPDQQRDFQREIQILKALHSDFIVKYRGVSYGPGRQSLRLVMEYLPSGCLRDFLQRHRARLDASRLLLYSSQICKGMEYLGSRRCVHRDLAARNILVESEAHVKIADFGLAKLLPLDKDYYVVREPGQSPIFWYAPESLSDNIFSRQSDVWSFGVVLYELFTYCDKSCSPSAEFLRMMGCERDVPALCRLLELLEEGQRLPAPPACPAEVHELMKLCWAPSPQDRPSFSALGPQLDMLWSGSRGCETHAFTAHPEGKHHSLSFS
# In short: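 IC50 reflects displacement of a fluorescein-labeled ATP-site probe (at its Kd) from 1 nM tagged JAK3, detected via 0.2 nM Tb anti-His or anti-GST antibody. One-hour incubation; 495 and 520 nm emission ratios, background-subtracted, normalized to maximum signal; 11-point percent inhibition, 4-parameter logistic.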
# [1] = system: TLR2 agonist-stimulated IL-6 in human whole blood; assay: IRAK4 Whole Blood Assay; assay type: cell-based; conditions: lipoteichoic acid 10 μg/mL, 5 hours, IL-6 levels
# Procedure: Human whole blood containing the anti-coagulant ACD-A was plated in 384-well plate (25 μL/well) and incubated with compounds for 60 minutes at 37° C. in a 5% CO2 incubator. The blood was stimulated with a TLR2 agonist, 10 μg/mL final concentration of lipoteichoic acid (Invivogen, San Diego, CA) in 25 μL RPMI (Gibco) for 5 hours in a 5% CO2 incubator. At the end of the incubation, plates were centrifuged at 2300 rpm for 5 minutes. Supernatants were harvested and analyzed for IL-6 levels by Flow Cytometry beads assay (BD Biosciences, San Jose, CA).
# IRAK4, sequence (Q9NWZ3 whole entry, species assumed): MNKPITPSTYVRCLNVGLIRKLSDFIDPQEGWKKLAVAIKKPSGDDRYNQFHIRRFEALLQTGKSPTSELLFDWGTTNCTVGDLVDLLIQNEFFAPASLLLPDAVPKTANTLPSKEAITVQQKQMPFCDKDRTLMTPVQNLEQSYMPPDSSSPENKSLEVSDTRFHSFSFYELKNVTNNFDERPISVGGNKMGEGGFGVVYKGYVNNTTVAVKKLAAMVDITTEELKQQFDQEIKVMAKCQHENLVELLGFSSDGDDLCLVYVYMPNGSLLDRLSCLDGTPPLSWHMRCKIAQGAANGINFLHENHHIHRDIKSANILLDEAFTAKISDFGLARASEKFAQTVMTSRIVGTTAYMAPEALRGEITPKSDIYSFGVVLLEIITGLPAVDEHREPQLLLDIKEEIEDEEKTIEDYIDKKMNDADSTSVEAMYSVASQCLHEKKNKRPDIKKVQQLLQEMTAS
Compound,IC50 (IRAK4),IC50 (JAK3 kinase),Ratio of JAK3 IC50 to IRAK4 IC50 (JAK3 kinase),IC50 [1]
"CC(C)Nc1c(C(=O)NC[C@@H](F)C(C)(C)O)cnn2cc(-c3ccc(C#N)cc3)cc12 [Example 1, (R)-6-(4-cyanophenyl)-N-(2-fluoro-3-hydroxy-3-methylbutyl)-4-(isopropylamino)pyrrolo[1,2-b]pyridazine-3-carboxamide]",12 nM,20000 nM,1667,> 10000 nM
"CC(C)Nc1c(C(=O)NC[C@@H](F)C(C)(C)O)cnn2cc(-c3cccc(C#N)c3)cc12 [Example 2, (R)-6-(3-cyanophenyl)-N-(2-fluoro-3-hydroxy-3-methylbutyl)-4-(isopropylamino) pyrrolo[1,2-b]pyridazine-3-carboxamide]",12 nM,,,> 10000 nM
"CC(C)Nc1c(C(=O)NC[C@@H](F)C(C)(C)O)cnn2cc(-c3cccnc3)cc12 [Example 3, (R)—N-(2-fluoro-3-hydroxy-3-methylbutyl)-4-(isopropylamino)-6-(pyridin-3-yl)pyrrolo[1,2-b]pyridazine-3-carboxamide]",16 nM,31000 nM,1938,9500 nM
"CC(C)Nc1c(C(=O)NC[C@@H](F)C(C)(C)O)cnn2cc(-c3ccncc3)cc12 [Example 5, (R)—N-(2-fluoro-3-hydroxy-3-methylbutyl)-4-(isopropylamino)-6-(pyridin-4-yl)pyrrolo[1,2-b]pyridazine-3-carboxamide]",9.2 nM,29000 nM,3152,4600 nM
"CC(C)Nc1c(C(=O)NC[C@@H](F)C(C)(C)O)cnn2cc(-c3cn[nH]c3)cc12 [Example 34, (R)—N-(2-fluoro-3-hydroxy-3-methylbutyl)-4-(isopropylamino)-6-(1H-pyrazol-4-yl) pyrrolo[1,2-b]pyridazine-3-carboxamide]",6.7 nM,> 10000 nM,>1493,> 10000 nM
"CC(C)Nc1c(C(=O)NC[C@@H](F)C(C)(C)O)cnn2cc(-c3ccc(N)nc3)cc12 [Example 45, (R)-6-(6-aminopyridin-3-yl)-N-(2-fluoro-3-hydroxy-3-methylbutyl)-4-(isopropylamino) pyrrolo[1,2-b]pyridazine-3-carboxamide]",7.9 nM,~29000 nM,~3671,4680 nM
"COC(=O)Nc1cc(-c2cc3c(NC(C)C)c(C(=O)NC[C@@H](F)C(C)(C)O)cnn3c2)ccn1 [Example 46, methyl (R)-(4-(3-((2-fluoro-3-hydroxy-3-methylbutyl)carbamoyl)-4-(isopropylamino)pyrrolo[1,2-b]pyridazin-6-yl)pyridin-2-yl) carbamate]",9.1 nM,> 50000 nM,>5495,6230 nM
"CC(=O)N[C@H]1CC[C@H](NC(=O)c2cnn3cc(-c4cccnc4)cc3c2NC(C)C)CC1 [Example 48, N-((1r,4r)-4-acetamidocyclohexyl)-4-(isopropylamino)-6-(pyridin-3-yl)pyrrolo[1,2-b]pyridazine-3-carboxamide]",5.9 nM,> 50000 nM,>8475,850 nM
"COC(=O)N[C@H]1CC[C@H](NC(=O)c2cnn3cc(-c4cccnc4)cc3c2NC(C)C)CC1 [Example 49, methyl ((1r,4r)-4-(4-(isopropylamino)-6-(pyridin-3-yl)pyrrolo[1,2-b]pyridazine-3-carboxamido)cyclohexyl)carbamate]",11.3 nM,> 50000 nM,>4425,> 10000 nM
"CC(=O)N[C@H]1CC[C@H](NC(=O)c2cnn3cc(-c4ccncc4)cc3c2NC(C)C)CC1 [Example 50, N-((1r,4r)-4-acetamidocyclohexyl)-4-(isopropylamino)-6-(pyridin-4-yl)pyrrolo[1,2-b]pyridazine-3-carboxamide]",2.1 nM,~39000 nM,~18571,900 nM
"COC(=O)N[C@H]1CC[C@H](NC(=O)c2cnn3cc(-c4ccncc4)cc3c2NC(C)C)CC1 [Example 51, methyl ((1r,4r)-4-(4-(isopropylamino)-6-(pyridin-4-yl)pyrrolo[1,2-b]pyridazine-3-carboxamido)cyclohexyl)carbamate]",2.8 nM,> 50000 nM,>17857,1760 nM
"CC(C)Nc1c(C(=O)N[C@H]2CC[C@H](N)CC2)cnn2cc(-c3ccncc3)cc12 [Example 54, N-((1r,4r)-4-aminocyclohexyl)-4-(isopropylamino)-6-(pyridin-4-yl)pyrrolo[1,2-b]pyridazine-3-carboxamide]",9.1 nM,> 50000 nM,>5495,1220 nM
"CC(C)Nc1c(C(=O)NC[C@@H](F)C(C)(C)O)cnn2cc(-c3cncs3)cc12 [Example 55, (R)—N-(2-fluoro-3-hydroxy-3-methylbutyl)-4-(isopropylamino)-6-(thiazol-5-yl)pyrrolo[1,2-b]pyridazine-3-carboxamide]",3.9 nM,> 50000 nM,>12821,> 10000 nM
"CC(=O)N[C@H]1CC[C@H](NC(=O)c2cnn3cc(-c4ccncc4C)cc3c2NC(C)C)CC1 [Example 56, N-((1r,4r)-4-acetamidocyclohexyl)-4-(isopropylamino)-6-(3-methylpyridin-4-yl)pyrrolo[1,2-b]pyridazine-3-carboxamide]",1.6 nM,> 50000 nM,>31250,810 nM
"CC(C)Nc1c(C(=O)N[C@H]2CC[C@H](O)CC2)cnn2cc(-c3ccncc3)cc12 [Example 60, N-((1r,4r)-4-hydroxycyclohexyl)-4-(isopropylamino)-6-(pyridin-4-yl)pyrrolo[1,2-b]pyridazine-3-carboxamide]",9.5 nM,> 50000 nM,>5263,3950 nM
"CC(C)Nc1c(C(=O)NCCC(C)(C)O)cnn2cc(-c3ccncc3)cc12 [Example 62, N-(3-hydroxy-3-methylbutyl)-4-(isopropylamino)-6-(pyridin-4-yl)pyrrolo[1,2-b]pyridazine-3-carboxamide]",8.4 nM,> 50000 nM,>5952,2010 nM
"CC(C)Nc1c(C(=O)NCCN2CCOCC2)cnn2cc(-c3ccncc3)cc12 [Example 63, 4-(isopropylamino)-N-(2-morpholinoethyl)-6-(pyridin-4-yl) pyrrolo[1,2-b]pyridazine-3-carboxamide]",12 nM,> 50000 nM,>4167,2000 nM
"CC(C)CCNC(=O)c1cnn2cc(-c3ccncc3)cc2c1NC(C)C [Example 64, N-isopentyl-4-(isopropylamino)-6-(pyridin-4-yl)pyrrolo[1,2-b]pyridazine-3-carboxamide]",14 nM,~29000 nM,~2071,8910 nM
"CC(=O)N[C@H]1CC[C@H](NC(=O)c2cnn3cc(-c4ccncc4F)cc3c2NC(C)C)CC1 [Example 65, N-((1r,4r)-4-acetamidocyclohexyl)-6-(3-fluoropyridin-4-yl)-4-(isopropylamino)pyrrolo[1,2-b] pyridazine-3-carboxamide]",1.6 nM,> 50000 nM,>31250,360 nM
"CC(C)Nc1c(C(=O)N[C@H]2CC[C@H](NC(=O)CO)CC2)cnn2cc(-c3ccncc3F)cc12 [Example 68, 6-(3-fluoropyridin-4-yl)-N-((1r,4r)-4-(2-hydroxyacetamido)cyclohexyl)-4-(isopropylamino)pyrrolo[1,2-b]pyridazine-3-carboxamide]",6.5 nM,> 50000 nM,>7692,4100 nM
"CC(=O)N[C@H]1CC[C@H](NC(=O)c2cnn3cc(-c4cccnc4F)cc3c2NC(C)C)CC1 [Example 69, N-((1r,4r)-4-acetamidocyclohexyl)-6-(2-fluoropyridin-3-yl)-4-(isopropylamino)pyrrolo[1,2-b]pyridazine-3-carboxamide]",9.2 nM,~42000 nM,~4565,7010 nM
"CC(=O)N[C@H]1CC[C@H](NC(=O)c2cnn3cc(-c4cnccc4C)cc3c2NC(C)C)CC1 [Example 70, N-((1r,4r)-4-acetamidocyclohexyl)-4-(isopropylamino)-6-(4-methylpyridin-3-yl)pyrrolo[1,2-b] pyridazine-3-carboxamide]",14 nM,> 50000 nM,>3571,> 10000 nM
"CC(C)Nc1c(C(=O)NCCC(C)(C)O)cnn2cc(-c3ccncc3F)cc12 [Example 77, 6-(3-fluoropyridin-4-yl)-N-(3-hydroxy-3-methylbutyl)-4-(isopropylamino)pyrrolo[1,2-b]pyridazine-3-carboxamide]",4.3 nM,,,1310 nM

# Reference: patent US12570659B2, “Bicyclic heteroaryl compounds useful as IRAK4 inhibitors” (BRISTOL-MYERS SQUIBB COMPANY, priority 2019, dated 2026)
